Here are results for six compounds from patent publication US8377939B2, “Oxadiazole derivatives and their use as metabotropic glutamate receptor potentiators 842” (AstraZeneca AB, priority 2007, dated 2013).

pEC50: −log10 of the molar value. Converted amounts (≈) assume the structure as drawn.

Data set [1] in a line: Aqueous solubility in pH 7.4 phosphate buffer. The format is physicochemical. The settings on record: thermodynamic from solid, equilibration 24 h at 25° C. On the procedure:
Solubility was determined in pH 7.4 phosphate buffer after equilibration for 24 h at 25° C. and HPLC-UV and LC-MSMS were used for quantitation.

For another data set, the target named is hERG ion channel (Homo sapiens, UniProt Q12809). In words: hERG activity (process of Bridgland-Taylor et al.). The format is cell-based. On the procedure: hERG activity was assessed using the process described by Bridgland-Taylor, M. H., et al, J. Pharm. Tox. Methods 54 (2006) 189-199.
Sequence of hERG ion channel (Q12809 whole entry): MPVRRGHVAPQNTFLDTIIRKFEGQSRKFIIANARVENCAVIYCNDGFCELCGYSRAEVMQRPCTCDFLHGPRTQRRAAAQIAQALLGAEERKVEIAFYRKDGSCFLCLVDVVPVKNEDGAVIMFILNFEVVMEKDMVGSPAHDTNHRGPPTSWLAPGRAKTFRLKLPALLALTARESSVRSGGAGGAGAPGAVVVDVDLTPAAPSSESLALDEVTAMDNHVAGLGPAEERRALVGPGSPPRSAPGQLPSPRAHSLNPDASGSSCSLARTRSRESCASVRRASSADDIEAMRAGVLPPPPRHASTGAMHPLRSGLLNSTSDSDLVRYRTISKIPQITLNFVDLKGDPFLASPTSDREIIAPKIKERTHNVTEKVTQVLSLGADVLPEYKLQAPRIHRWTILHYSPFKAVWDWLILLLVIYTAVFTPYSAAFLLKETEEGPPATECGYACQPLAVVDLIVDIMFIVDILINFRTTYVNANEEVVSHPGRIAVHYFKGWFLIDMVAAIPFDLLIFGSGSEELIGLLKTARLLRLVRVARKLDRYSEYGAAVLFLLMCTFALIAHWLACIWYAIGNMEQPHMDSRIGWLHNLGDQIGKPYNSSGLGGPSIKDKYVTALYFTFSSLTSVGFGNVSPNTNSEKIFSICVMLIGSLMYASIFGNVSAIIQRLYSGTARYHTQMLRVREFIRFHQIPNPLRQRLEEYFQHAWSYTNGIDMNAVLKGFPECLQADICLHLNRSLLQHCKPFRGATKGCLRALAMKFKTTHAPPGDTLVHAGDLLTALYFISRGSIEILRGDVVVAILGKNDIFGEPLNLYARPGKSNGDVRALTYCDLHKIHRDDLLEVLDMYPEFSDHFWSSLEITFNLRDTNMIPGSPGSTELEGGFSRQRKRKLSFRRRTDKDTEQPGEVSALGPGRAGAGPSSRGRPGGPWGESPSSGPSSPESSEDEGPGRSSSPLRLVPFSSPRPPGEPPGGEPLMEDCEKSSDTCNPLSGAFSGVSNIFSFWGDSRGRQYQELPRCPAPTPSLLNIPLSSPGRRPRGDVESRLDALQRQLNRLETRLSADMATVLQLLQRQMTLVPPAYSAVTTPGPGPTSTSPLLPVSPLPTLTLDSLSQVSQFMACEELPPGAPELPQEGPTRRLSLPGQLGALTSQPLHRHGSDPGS
Another data set addresses T1, human mGluR2 (Homo sapiens, UniProt Q14416).
T1 construct: expressed in transfected cells; host or cells: CHO cells, stably transfected; membranes
Briefly: [35S]-GTPγS binding assay, allosteric activator activity with CHO cell membranes. It is filed as biochemical. The settings on record: membranes of CHO cells expressing human mGluR2, 1 μM glutamate; read-out: GTPgS EC50.

T1 sequence (Q14416 19-872): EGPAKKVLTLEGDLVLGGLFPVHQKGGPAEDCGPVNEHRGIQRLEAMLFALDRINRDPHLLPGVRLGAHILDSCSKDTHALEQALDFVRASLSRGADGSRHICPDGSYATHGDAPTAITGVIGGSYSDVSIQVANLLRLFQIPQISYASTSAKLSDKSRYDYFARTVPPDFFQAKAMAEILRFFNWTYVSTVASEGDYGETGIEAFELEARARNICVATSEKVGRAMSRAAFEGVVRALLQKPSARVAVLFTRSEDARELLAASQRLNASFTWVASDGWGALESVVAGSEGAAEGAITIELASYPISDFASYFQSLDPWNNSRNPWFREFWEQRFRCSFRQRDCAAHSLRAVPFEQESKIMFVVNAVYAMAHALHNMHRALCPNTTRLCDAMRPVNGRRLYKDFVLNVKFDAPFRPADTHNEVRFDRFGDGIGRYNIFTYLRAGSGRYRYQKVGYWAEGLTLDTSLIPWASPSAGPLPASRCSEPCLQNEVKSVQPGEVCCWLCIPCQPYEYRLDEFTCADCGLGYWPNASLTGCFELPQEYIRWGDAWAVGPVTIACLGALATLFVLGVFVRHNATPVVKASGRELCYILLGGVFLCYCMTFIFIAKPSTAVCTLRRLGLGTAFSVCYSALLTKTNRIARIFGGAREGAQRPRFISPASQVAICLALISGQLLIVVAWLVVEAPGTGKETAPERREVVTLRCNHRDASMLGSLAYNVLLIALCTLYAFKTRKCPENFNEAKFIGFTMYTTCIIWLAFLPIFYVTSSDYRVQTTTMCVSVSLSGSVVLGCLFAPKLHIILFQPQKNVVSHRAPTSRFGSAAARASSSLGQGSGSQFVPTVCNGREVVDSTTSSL
Description for human mGluR2: A [^35S]-GTPγS binding assay was used to functionally assay mGluR2 receptor activation. The allosteric activator activity of compounds at the human mGluR2 receptor were measured using a [^35S]-GTPγS binding assay with membranes prepared from CHO cells which stably express the human mGluR2. The assay is based upon the principle that agonists bind to G-protein coupled receptors to stimulate GDP-GTP exchange at the G-protein. Since [^35S]-GTPγS is a non-hydrolyzable GTP analog, it can be used to provide an index of GDP-GTP exchange and, thus, receptor activation. The GTPγS binding assay therefore provides a quantitative measure of receptor activation.
Membranes were prepared from CHO cells stably transfected with human mGluR2. Membranes (30 μg protein) were incubated with test compound (3 nM to 300 μM) for 15 minutes at room temperature prior to the addition of 1 μM glutamate, and incubated for 30 min at 30° C. in 500 μl assay buffer (20 mM HEPES, 100 mM NaCl, 10 mM MgCl2), containing 30 μM GDP and 0.1 nM [^35S]-GTPγS (1250 Ci/mmol). Reactions were carried out in triplicate in 2 ml polypropylene 96-well plates. Reactions were terminated by vacuum filtration using a Packard 96-well harvester and Unifilter-96, GF/B filter microplates. The filter plates were washed 4×1.5 ml with ice-cold wash buffer (10 mM sodium phosphate buffer, pH 7.4). The filter plates were dried and 35 μl of scintillation fluid (Microscint 20) was added to each well. The amount of radioactivity bound was determined by counting plates on the Packard TopCount. Data was analyzed using GraphPad Prism, and EC50 and Emax values (relative to the maximum glutamate effect) were calculated using non-linear regression.

For orientation: solubility means the concentration that dissolves in the medium under given conditions. Higher therefore signals a readily soluble substance. As to `Cc1cc(-c2nc(CN3CCNCC3)no2)cc2c1C(=O)N(Cc1ccc(OC(F)(F)F)cc1)C2` [Example 1, 7-Methyl-5-(3-piperazin-1-ylmethyl-[1,2,4]oxadiazol-5-yl)-2-(4-trifluoromethoxybenzyl)-2,3-dihydroisoindol-1-one], the concentration in solution in data set [1] (solubility at 24 h) was 44.9 µM (≈ 21.9 µg/mL). For the same compound, the hERG on hERG ion channel was 11.0 µM.
Usually pEC50 stands for the EC50 on a negative log10 scale, so that one unit is a factor of ten. For `Cc1cc(-c2nc(CN3C[C@@H]4C[C@H]3CN4)no2)cc2c1C(=O)N(Cc1ccc(Cl)cc1)C2` [Example 2, 2-(4-Chloro-benzyl)-5-[3-(2,5-diaza-bicyclo[2.2.1]hept-2-ylmethyl)-[1,2,4]oxadiazol-5-yl]-7-methyl-2,3-dihydro-isoindol-1-one], at human mGluR2, the pEC50 is 6.69. Further, in data set [1], the concentration in solution (solubility at 24 h) was 336 µM (≈ 151 µg/mL). The compound further showed a hERG at hERG ion channel of 33.0 µM.
As to `Cc1cc(-c2nc(CN3CCNC(C)C3)no2)cc2c1C(=O)N(Cc1ccc(Cl)cc1)C2` (centres unmarked) [Example 3, 2-(4-Chloro-benzyl)-7-methyl-5-[3-(3-methyl-piperazin-1-ylmethyl)-[1,2,4]oxadiazol-5-yl]-2,3-dihydro-isoindol-1-one], on human mGluR2, the pEC50 was 6.81. Further, the concentration in solution in data set [1] (solubility at 24 h) was 396 µM (≈ 179 µg/mL). In addition, on hERG ion channel, the hERG amounted to 12.0 µM.
Taken in the same sequence, the figures for `Cc1cc(-c2nc(CN3CCNCC3)no2)cc2c1C(=O)N(Cc1ccc(Cl)cc1)C2` [Example 4, 2-(4-Chloro-benzyl)-7-methyl-5-(3-piperazin-1-ylmethyl-[1,2,4]oxadiazol-5-yl)-2,3-dihydro-isoindol-1-one] were 6.42, > 500 µM and 25.0 µM.
Taken in the same sequence, the figures for `Cc1cc(-c2nc(CN3CCNC[C@@H]3C)no2)cc2c1C(=O)N(Cc1ccc(Cl)cc1)C2` [Example 5, 2-(4-Chloro-benzyl)-7-methyl-5-[3-(2-methyl-piperazin-1-ylmethyl)-[1,2,4]oxadiazol-5-yl]-2,3-dihydro-isoindol-1-one] were 6.45, 384 µM (≈ 174 µg/mL) and 12.6 µM.
For `Cc1cc(-c2nc(CN3CCNC[C@H]3C)no2)cc2c1C(=O)N(Cc1ccc(Cl)cc1)C2` [Example 6, 2-(4-Chloro-benzyl)-7-methyl-5-[3-(2-methyl-piperazin-1-ylmethyl)-[1,2,4]oxadiazol-5-yl]-2,3-dihydro-isoindol-1-one], on human mGluR2, the pEC50 was 6.50. The solubility at 24 h in data set [1] is > 500 µM. The compound further displayed a hERG at hERG ion channel of 18.7 µM.
